# Results as given in ChEMBL document CHEMBL1201862, “PubChem BioAssay data set” (2004).
#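 96-well plates; 48 h exposure; 5 concentrations. Endpoints by linear interpolation between flanking doses. Not reached: highest tested concentration assigned. Here, GI50 denotes the concentration required for 50% inhibition of growth.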 Calls of active or inactive are those of the source. Cut-off read from the data, not from the text of the source: active = GI50 up to about 1.1 µM and inactive = higher.
# Legend:
# Test in all cases: DTP human tumour cell line panel, 48 h
# K562 = tested on: K562
# NCI/ADR-RES = tested on: NCI/ADR-RES
# LOX IMVI = tested on: LOX IMVI
# SK-MEL-28 = tested on: SK-MEL-28
# SK-MEL-2 = tested on: SK-MEL-2
# OVCAR-4 = tested on: OVCAR-4
# SNB-19 = tested on: SNB-19
# SF-268 = tested on: SF-268
# MCF7 = tested on: MCF7
# UACC-62 = tested on: UACC-62
# HCT-116 = tested on: HCT-116
# OVCAR-5 = tested on: OVCAR-5
# T47D = tested on: T47D
# CCRF-CEM = tested on: CCRF-CEM
# MOLT-4 = tested on: MOLT-4
# OVCAR-8 = tested on: OVCAR-8
# TK-10 = tested on: TK-10
# SF-539 = tested on: SF-539
# UO-31 = tested on: UO-31
Compound,GI50 (K562),GI50 (NCI/ADR-RES),GI50 (LOX IMVI),GI50 (SK-MEL-28),GI50 (SK-MEL-2),GI50 (OVCAR-4),GI50 (SNB-19),GI50 (SF-268),GI50 (MCF7),GI50 (UACC-62),GI50 (HCT-116),GI50 (OVCAR-5),GI50 (T47D),GI50 (CCRF-CEM),GI50 (MOLT-4),GI50 (OVCAR-8),GI50 (TK-10),GI50 (SF-539),GI50 (UO-31)
Cc1nn(-c2ccccc2)c(C)c1/C=N/NC(=O)c1sc(=S)n(-c2ccccc2)c1N,0.681 µM (active),3.62 µM (inactive),2.09 µM (inactive),3.25 µM (inactive),29 µM (inactive),2.69 µM (inactive),30.8 µM (inactive),5.22 µM (inactive),5.65 µM (inactive),4.62 µM (inactive),4.5 µM (inactive),5.52 µM (inactive),4.2 µM (inactive),5.16 µM (inactive),5.58 µM (inactive),4.69 µM (inactive),1.63 µM (inactive),2.39 µM (inactive),3.74 µM (inactive)
CCCCCCCCCCCC(=O)OCC(O)CO (configuration not stated) [GLYCEROL MONOLAURATE],–,> 100 µM (inactive),48.1 µM (inactive),> 100 µM (inactive),> 100 µM (inactive),> 100 µM (inactive),> 100 µM (inactive),> 100 µM (inactive),> 100 µM (inactive),> 100 µM (inactive),> 100 µM (inactive),> 100 µM (inactive),69.3 µM (inactive),42.7 µM (inactive),37.1 µM (inactive),> 100 µM (inactive),> 100 µM (inactive),> 100 µM (inactive),71.9 µM (inactive)
CC1(C(=O)O)CCC2(C)CCC3(C)C(=CC(=O)C4C5(C)CCC(O)C(C)(C)C5CCC43C)C2C1 (configuration not stated),–,46 µM (inactive),22.6 µM (inactive),22.1 µM (inactive),21.8 µM (inactive),42.8 µM (inactive),20.6 µM (inactive),27.4 µM (inactive),50.2 µM (inactive),21 µM (inactive),23.4 µM (inactive),29.6 µM (inactive),30.8 µM (inactive),30.9 µM (inactive),36.2 µM (inactive),43.8 µM (inactive),35.7 µM (inactive),17.6 µM (inactive),23.6 µM (inactive)
Cc1cn(CCC(N)C(=O)O)c(=O)[nH]c1=O (configuration not stated),> 100 µM (inactive),> 100 µM (inactive),> 100 µM (inactive),> 100 µM (inactive),> 100 µM (inactive),> 100 µM (inactive),> 100 µM (inactive),> 100 µM (inactive),> 100 µM (inactive),> 100 µM (inactive),> 100 µM (inactive),> 100 µM (inactive),> 100 µM (inactive),> 100 µM (inactive),> 100 µM (inactive),> 100 µM (inactive),> 100 µM (inactive),> 100 µM (inactive),> 100 µM (inactive)
NCCCN1CCN(CC(=O)O)CCN(CCCN)CCN(CC(=O)O)CC1,6.67 µM (inactive),> 100 µM (inactive),> 100 µM (inactive),> 100 µM (inactive),> 33.3 µM (inactive),> 100 µM (inactive),> 100 µM (inactive),> 100 µM (inactive),44.1 µM (inactive),> 56.9 µM (inactive),> 100 µM (inactive),> 38.9 µM (inactive),> 100 µM (inactive),> 91.6 µM (inactive),7.14 µM (inactive),> 86.1 µM (inactive),> 100 µM (inactive),68.1 µM (inactive),> 34.3 µM (inactive)
CO[P@]1(=O)O[C@@H](c2ccccc2)[C@H](O)[C@]1(O)c1ccccc1,> 100 µM (inactive),> 100 µM (inactive),> 100 µM (inactive),> 100 µM (inactive),> 100 µM (inactive),> 100 µM (inactive),> 100 µM (inactive),> 100 µM (inactive),> 100 µM (inactive),> 100 µM (inactive),> 100 µM (inactive),> 100 µM (inactive),> 100 µM (inactive),> 100 µM (inactive),–,> 100 µM (inactive),> 100 µM (inactive),> 100 µM (inactive),> 100 µM (inactive)
Cc1ccccc1C1CC(=O)CC(c2ccccc2C)C12C(=O)NC(=O)NC2=O (configuration not stated),> 100 µM (inactive),> 100 µM (inactive),> 100 µM (inactive),> 100 µM (inactive),> 100 µM (inactive),> 62.4 µM (inactive),> 100 µM (inactive),> 100 µM (inactive),> 73.6 µM (inactive),> 100 µM (inactive),> 100 µM (inactive),> 100 µM (inactive),> 100 µM (inactive),> 65.3 µM (inactive),> 78.5 µM (inactive),> 100 µM (inactive),> 100 µM (inactive),> 32.4 µM (inactive),> 100 µM (inactive)
O=C1CCCn2c(nc3ccccc32)N1,> 100 µM (inactive),> 100 µM (inactive),> 100 µM (inactive),–,> 100 µM (inactive),> 100 µM (inactive),> 100 µM (inactive),> 100 µM (inactive),> 100 µM (inactive),> 100 µM (inactive),> 100 µM (inactive),> 100 µM (inactive),> 100 µM (inactive),> 100 µM (inactive),> 100 µM (inactive),> 100 µM (inactive),> 100 µM (inactive),> 100 µM (inactive),> 100 µM (inactive)
CC(C)=C1C(=O)C[C@]2(C)C[C@H]3/C(=C(/C)CCC12)CC[C@@]3(C)O (some centres not stated),22.2 µM (inactive),> 50 µM (inactive),> 50 µM (inactive),> 50 µM (inactive),> 50 µM (inactive),> 50 µM (inactive),> 50 µM (inactive),> 50 µM (inactive),> 50 µM (inactive),> 50 µM (inactive),46.2 µM (inactive),> 50 µM (inactive),46.9 µM (inactive),20.3 µM (inactive),14.9 µM (inactive),> 50 µM (inactive),> 50 µM (inactive),> 50 µM (inactive),> 50 µM (inactive)
Cc1noc2nnn(-c3ccc(Cl)cc3)c(=O)c12,1.3 µM (inactive),4.17 µM (inactive),2.5 µM (inactive),10.8 µM (inactive),3.24 µM (inactive),3.18 µM (inactive),13.3 µM (inactive),6.98 µM (inactive),2.67 µM (inactive),4.43 µM (inactive),2.89 µM (inactive),7.23 µM (inactive),0.614 µM (active),0.355 µM (active),0.364 µM (active),2.69 µM (inactive),9.06 µM (inactive),0.223 µM (active),3.61 µM (inactive)
O=C1Nc2ccccc2/C1=N/NC(=S)N1CCCC1,0.586 µM (active),0.361 µM (active),0.673 µM (active),> 100 µM (inactive),6.27 µM (inactive),1.01 µM (active),1.15 µM (inactive),9.93 µM (inactive),2.07 µM (inactive),1.32 µM (inactive),0.425 µM (active),12.8 µM (inactive),6.25 µM (inactive),0.369 µM (active),0.193 µM (active),1.02 µM (active),8.26 µM (inactive),1.08 µM (active),0.632 µM (active)
CS(=O)(=O)c1ccc(C(=O)O[C@@H]2C(=O)N3CC[C@H]4OC(O)[C@@H]2[C@H]43)cc1 (some centres not stated),> 100 µM (inactive),> 100 µM (inactive),> 100 µM (inactive),> 100 µM (inactive),> 100 µM (inactive),> 100 µM (inactive),> 100 µM (inactive),> 100 µM (inactive),> 100 µM (inactive),> 100 µM (inactive),64.7 µM (inactive),> 100 µM (inactive),> 100 µM (inactive),–,> 100 µM (inactive),> 100 µM (inactive),> 100 µM (inactive),> 100 µM (inactive),> 100 µM (inactive)
CCOC(=O)CCC(C(=O)OCC)n1nnc2ccc(Nc3c(C)[n+]([O-])c4ccc(Cl)cc4[n+]3[O-])cc21 (configuration not stated),45.8 µM (inactive),28.3 µM (inactive),28.8 µM (inactive),–,30.9 µM (inactive),33.8 µM (inactive),> 100 µM (inactive),23.5 µM (inactive),19.9 µM (inactive),30.4 µM (inactive),40.2 µM (inactive),54.1 µM (inactive),34 µM (inactive),35 µM (inactive),34.5 µM (inactive),39.2 µM (inactive),66.2 µM (inactive),38.5 µM (inactive),42.2 µM (inactive)
CC(C)C1OCC(CO)CO1 (configuration not stated),–,> 100 µM (inactive),> 100 µM (inactive),> 100 µM (inactive),> 100 µM (inactive),> 100 µM (inactive),> 100 µM (inactive),> 100 µM (inactive),> 100 µM (inactive),> 100 µM (inactive),> 100 µM (inactive),> 100 µM (inactive),> 100 µM (inactive),> 100 µM (inactive),> 100 µM (inactive),> 100 µM (inactive),> 100 µM (inactive),> 100 µM (inactive),> 100 µM (inactive)
Cc1c(-c2ccccc2)c(C#N)c2nnn(-c3ccccc3)c(=O)n12,40.6 µM (inactive),> 100 µM (inactive),48.4 µM (inactive),> 100 µM (inactive),> 100 µM (inactive),> 100 µM (inactive),> 100 µM (inactive),> 100 µM (inactive),80.9 µM (inactive),92.5 µM (inactive),> 100 µM (inactive),> 100 µM (inactive),33 µM (inactive),34.8 µM (inactive),–,> 100 µM (inactive),> 100 µM (inactive),> 100 µM (inactive),> 100 µM (inactive)
